The subject of one test is HCV Replicon IA. The test can be described thus: HCV replicon assay in Huh-7 cells, genotype 1a. Particulars: Hepatitis C virus, 72 h, Huh-7 HCV replicon cells, 3 days. The format is cell-based. A general note: A replicon is a self-replicating genome or part of one, used to study replication in cells.
The subject of a further test is HCV Replicon IB. Nature of the test: HCV replicon assay in Huh-7 cells, genotype 1b (Rluc luciferase readout). The format is cell-based, hepatitis C virus. Particulars: 3 days; for inhibition at 10 µM: 72 h; for pEC50: HCV1B replicon, read-out: EC50_HCV1B_.
Setting [1] is: Hepatitis C virus, 10 μM, Huh-7 HCV replicon cells, read-out: % inhibition @ 10 μM HCV Replicon IB.
Where [2] appears, read: Hepatitis C virus, 10 uM, 1b-Rluc replicon, Huh-7 cells, read-out: Inhibition @ 10 uM in 1b-Rluc.
Setting [3] is: Hepatitis C virus, Huh-7, 72 h, Huh-7 cells.

Here are results for 26 molecules from patent publication US20120053148A1, “INHIBITORS OF HEPATITIS C VIRUS” (GILEAD SCIENCES, INC., priority 2010, published 2012).

pEC50: −log10 of the molar value. Read-outs that look alike come from different tables or passages of the source.

For the molecule `O=C(NCc1cccs1)c1cc(O)c2cc(-c3ccoc3)cc(C(F)(F)F)c2n1` [Compound 7], the inhibition (commonly the change of the read-out against control, counted positive when it falls) at 10 µM came to 99.2% in the test with HCV Replicon IA and 99.8% with HCV Replicon IB (setting [1]). `O=C(NCc1cocn1)c1cc(O)c2cc(-c3cn[nH]c3)cc(C(F)(F)F)c2n1` [Compound 10]: the figures for the inhibition at 10 µM with HCV Replicon IA and with HCV Replicon IB (setting [1]) were 80.7% and 74.3%, respectively. In the same order, the values of `O=C(NCc1cccs1)c1nc(O)c2cc(-c3ccoc3)cc(C(F)(F)F)c2n1` [Compound 48] are 99.4% and 99.9%. In the same order, the values of `Nc1cc(C(=O)NCc2ccccn2)nc2c(C(F)(F)F)cc(-c3ccccc3)cc12` [Compound 68] are 99.9% and 99.7%.

Consider `O=C(NCc1cccs1)c1cc(Cl)c2cc(-c3ccoc3)cc(C(F)(F)F)c2n1` [Compound 25], for which the inhibition at 10 µM in the test on HCV Replicon IA came to 98.7%; with HCV Replicon IB (setting [1]) it was 99.7%. On the same counts, the results for `O=C(NCc1cncs1)c1cc(O)c2cc(-c3cn[nH]c3)cc(C(F)(F)F)c2n1` [Compound 8] are 98.8% and 94%.

`Cc1cc(-c2nnc(NCCS(C)(=O)=O)o2)nc2c(C(F)(F)F)cc(C3CC3)cc12` [Compound 265]: the inhibition at 10 µM in the test on HCV Replicon IB (setting [2]) was found to be 98%.

Take `Cc1cc(-c2nnc(NCC3OCCO3)s2)nc2c(C(F)(F)F)cc(C3CC3)cc12` [Compound 297]: in the test on HCV Replicon IB (setting [2]), the inhibition at 10 µM worked out at 100%. Consider `Cc1cc(C(=O)NCc2ccccn2)nc2c(C(F)(F)F)cc(C3=CCCC3)cc12` [Compound 149], for which the inhibition at 10 µM with HCV Replicon IB (setting [2]) amounted to 99.4%. Take `CNc1cc(C(=O)NCc2ccccn2)nc2c(C(F)(F)F)cc(C3CC3)cc12` [Compound 216]: the inhibition at 10 µM in the test on HCV Replicon IB (setting [2]) stood at 98.2%. As to `Cc1cc(-c2nnc(N[C@H]3CC[C@@](C)(O)CC3)o2)nc2c(C(C)(C)C)cc(OCC(F)(F)F)cc12` [Compound 497], the pEC50 in the test on HCV Replicon IB (Huh-7 cells) was 7.13. As to `Cc1cc(C(=O)NCC2(NC(=O)OC(C)(C)C)CC2)nc2c(C(F)(F)F)cc(C3CC3)cc12` [Compound 87], the inhibition at 10 µM in the test on HCV Replicon IB (setting [2]) is 84.5%. On the same count and under the same terms, for `COc1cc(C(F)(F)F)c2nc(-c3nnc(NCC4OCCO4)o3)cc(C)c2c1` [Compound 278] the value was 99.9%; for `CCC(O)CNC(=O)c1cc(C)c2cc(-c3ccccc3)cc(C(F)(F)F)c2n1` (centres unmarked) [Compound 165], 96.5%. Same read-out and setting: the figure for `O=C(NCc1ccccn1)c1cc(Cl)c2cc(C3CC3)cc(OC(F)(F)F)c2n1` [Compound 233] is 100%. Regarding `CC(C)(C)c1cc(C2CC2)cc2c(N)cc(-c3nnc(NC4CCCC4)o3)nc12` [Compound 348], in the test on HCV Replicon IB (setting [3]), the pEC50 is 8.28. `Cc1cc(C(=O)NCC2CCCCN2)nc2c(C(F)(F)F)cc(C3CC3)cc12` (centres unmarked) [Compound 108]: in the test on HCV Replicon IB (setting [2]), the inhibition at 10 µM was found to be 96.5%. On to `CC(C)(C)c1cc(C2CC2)cc2c(N)cc(C(=O)NCc3ncccn3)nc12` [Compound 319], for which the pEC50 in the test on HCV Replicon IB (setting [3]) was 9.09.

Consider `COCCCNC(=O)c1cc(C)c2cc(C3CC3)cc(C(F)(F)F)c2n1` [Compound 120], for which the inhibition at 10 µM in the test with HCV Replicon IB (setting [2]) is 99.8%. The same measure, in the same setting: the figure for `Cc1cc(-c2nnc(NCCC(C)(C)O)s2)nc2c(C(F)(F)F)cc(C3CC3)cc12` [Compound 295] is 98.1%; for `CCCCNc1nnc(-c2cc(C)c3cc(C4CC4)cc(C(F)(F)F)c3n2)s1` [Compound 288] it is 100%. Still for that read-out and setting: for `Cc1cc(-c2nnc(NCC3(C#N)CC3)o2)nc2c(C(F)(F)F)cc(C3CC3)cc12` [Compound 268] the value was 99.4%; for `Cc1cc(C(=O)NCC2(O)CC2)nc2c(C(F)(F)F)cc(-c3ccccc3)cc12` [Compound 163], 98.3%; for `O=C(NCc1ccccn1)c1cc(O)c2cc(OC(F)(F)F)cc(-c3cccc4[nH]ncc34)c2n1` [Compound 239], 49.3%. Consider `Cc1cc(C(=O)NC(CO)c2ccccc2)nc2c(C(F)(F)F)cc(-c3ccccc3)cc12` (centres unmarked) [Compound 167], for which the inhibition at 10 µM with HCV Replicon IB (setting [2]) was found to be 87.5%. On to `CCC(CNC(=O)c1cc(N)c2cc(OC(F)F)cc(C(F)(F)F)c2n1)=NOC` [Compound 316], for which the pEC50 with HCV Replicon IB (setting [3]) is 7.21.
